Legend:
P-gp [1] = test: Western blot of P-gp expression in HCMEC-D3 cells; format: cell-based, human; conditions: 1 μM, up to 72 hours
Description: (§1) HCMEC-D3 and HBMVEC cells were plated in 12-well plates and were grown until they reached 100% confluency. The media was replaced with fresh media containing 1 μM of Lexiscan® or NECA with proper vehicle control (DMSO) for up to 72 hours. Cells were lysed by lysis buffer […] containing protease inhibitor cocktail and stored for later use (−70° C.). For cytoskeletal fraction analysis, cells were lysed in CSK buffer (100 mM NaCl, 300 mM sucrose, 3 mM MgCl2, 10 mM PIPES, pH 6.8). For brain samples, half of the brain was homogenized and lysed with […] lysis buffer and centrifuged at 17,000 g for 20 minutes and 1:10 diluted samples were used for analysis. Sample was loaded on 7% SDS PAGE at 100 V for 1 hour and transferred to the nitrocellulose paper. It was blocked with 1% BSA and incubated with anti-P-gp antibody (Genetex, 1:2000) overnight. Subsequently, it was washed with TBST and incubated with anti-rabbit secondary antibody (1:2000) for 1 hour. It was washed with TBST and developed with ECL substrate and exposed to x-ray film. Anti-GAPDH or −β-actin antibody was used as loading control. The intensity of band was analyzed with densitometric analysis and plotted as a graph for analysis of time-course effect of AR signaling on P-gp expression.

P-gp [2] = test: Microscopic (IFA) analysis of Rho123 uptake in primary human brain endothelial cells; format: cell-based; conditions: 2.5 μM Rho123, 1 μM agonist, 15 minutes to 24 hours
Description: Human brain endothelial cells and primary brain endothelial cells were plated onto 48-well plates until 100% confluence was reached, and media were replaced with fresh media containing Rho123 (2.5 μM) with different concentrations of Lexiscan®, NECA, or PSC833. Reaction was halted by adding 250 μl of ice-cold PBS. Plate was washed with 250 μl of ice-cold PBS 3 times and lysed with lysis buffer. Each sample was analyzed using Synergy Fluometer (Biotek), with excitation at 488 nm and emission at 523 nm. Concentration of Rho123 was analyzed using standard curve created by serial dilution of Rho123. Final concentration of Rho123 was normalized using protein concentration of lysate measured using Bradford assay (Bio-Rad). For microscopic analysis of Rho123 uptake, cells were cultured on coverslip and Rho123 was treated with or without Lexiscan® or NECA with DMSO as control. Reaction was terminated by adding ice-cold PBS and washed with ice-cold PBS 3 times. Cells were fixed with PFA and costained with anti-human P-gp. Cells were visualized with a Zeiss fluorescent microscope and captured with axiovision software. FIG. 4G is a schematic illustration of the Rho123 uptake assay.

P-gp [3] = test: Western blot of P-gp expression in MCF7 breast cancer cells; format: cell-based, human; conditions: 1 μM, 24, 48, 72 hours
Description: MCF7 cells (human breast cancer cell line) were cultured in 24 well plates until they reached confluency. FIGS. 17A-17C are images of western blots of cells treated with vehicle control (i.e., DMSO) (“D”) or 1 μM of the broad spectrum AR agonist NECA (“N”) (FIG. 17A), 1 μM of the A2A AR agonist Lexiscan® (“L”) (FIG. 17B), or 1 μM of the A2B AR agonist BAY60 (“B”) (FIG. 17C), respectively for 24, 48, 72 hours. Cells were lysed with lysis buffer and expression levels of P-gp, MMP9, or VEGF analyzed by western blot. GAPDH was used as loading a control. FIG. 17D is a graph of experimental results showing that Lexiscan® down-regulates P-gp expression in MCF7 breast cancer cells. MCF7 breast cancer cells were treated with Lex (0.25 μM) concomitant with Rhodamine 123 (“Rho123”). […] Students T test, P<0.001. […] FIG. 17E is a fluorescence microscopy image showing MCF7 breast cancer cells grown on coverslips and treated with vehicle (DMSO, control), or A2 AR agonists, Lexiscan® (1 μM) or A1193 (1 μM) for 15 minutes in the presence of epirubicin. Cells were stained with an antibody to P-gp and mounted with DAPI. FIG. 17F is a graph of the fluorescent intensity quantified from FIG. 17E by measuring the mean fluorescent intensity (“MFI”) of epirubicin (pink) that is present in cell nuclei. ***=P<0.0001.

P-gp [4] = test: Western blot of P-gp expression in primary mouse brain endothelial cells; format: cell-based; conditions: 1 μM, up to 72 hours
Description: Mice were sacrificed and meninges of brain were removed and ground using a plunger and centrifuged at 3,000 g for 5 minutes. The obtained pellet was dissolved in 18% dextran and centrifuged at 10,000 g for 10 minutes and digested with DMEM containing collagenase, DNAse, and dispase at 37° C. for 75 minutes. The sample was centrifuged for 5 minutes at 3,200 g, and the pellet was washed with warm PBS. The pellet was resuspended in DMEM/F12 with puromycin, heparin, 20% PDS, and 1-glutamine and plated onto the proper plate.
as §1, with “Sample was loaded on 7% SDS PAGE at 100 V for 1 hour and transferred to the nitrocellulose paper. It was blocked with 1% BSA and incubated with anti-P-gp antibody (Genetex, 1:2000) overnight. Subsequently, it was washed with TBST and incubated with anti-rabbit secondary antibody (1:2000) for 1 hour. It was washed with TBST and developed with ECL substrate and exposed to x-ray film. Anti-GAPDH or −β-actin antibody was used as loading control.” left out

Row | SMILES | P-gp expression (western blot, vs DMSO control) (P-gp [1]) | Rho123 accumulation visualized by IFA (P-gp [2]) | P-gp expression (western blot) (P-gp [3]) | P-gp expression (western blot, normalized to GAPDH) (P-gp [4])
1 | CNC(=O)c1cnn(-c2nc(N)c3ncn([C@@H]4O[C@H](CO)[C@@H](O)[C@H]4O)c3n2)c1 [Lexiscan®, 1-[6-amino-9-[(2R,3R,4S,5R)-3,4-dihydroxy-5-(hydroxymethyl)oxolan-2-yl]purin-2-yl]-N-methylpyrazole-4-carboxamide] | rapid decrease in P-gp expression beginning at 30 minutes, which was maintained for up to 1 hour | increased the accumulation of Rho123 beginning at 15 minutes to 1 hour | decreased P-gp expression in cultured MCF7 cells at 48 and 72 hour time points | rapid down-modulation of P-gp beginning at 30 minutes, which was maintained for up to 1 hour
2 | CCNC(=O)[C@H]1O[C@@H](n2cnc3c(N)ncnc32)[C@H](O)[C@@H]1O [NECA, (2S,3S,4R,5R)-5-(6-aminopurin-9-yl)-N-ethyl-3,4-dihydroxyoxolane-2-carboxamide] | decreased P-gp expression for up to 4 hours | increased Rho123 accumulation at later time points, beginning at 4 hours; this was maintained for up to 24 hours | decreased P-gp expression in cultured MCF7 cells at 48 and 72 hour time points | P-gp expression decreased very rapidly and remained down-modulated for up to 4 hours

Source: US10953015B2, “Use of adenosine receptor signaling to regulate P-gp function” (CORNELL UNIVERSITY, priority 2016, dated 2021)
